Several values for one entry are separate records, joined by “and”; a condition that tells them apart may be missing. Equal values may be shown once. Read-outs that look alike come from different tables or passages of the source.
Columns and labels:
[1] = tested on: M. adductor pollicis contractions; assay: Rocuronium-induced block of M. adductor pollicis contractions (TOF stimulation) and effect of Org 25969 in anaesthetised Rhesus monkeys; format: in vivo, Rhesus monkey
Method: (§1) • T1: first twitch: amplitude of the first response to TOF stimulation, expressed as percentage of control T1 (%). • T4/T1 ratio: the ratio of T4 over T1 (within one TOF stimulus) expressed as decimals.
Female Rhesus monkeys were starved overnight and sedated with 10 mg·kg^−1 ketamine i.m., followed by i.v. injection of 25 mg·kg^−1 pentobarbitone sodium and subsequent infusion of 5-10 mg·kg^−1hr^−1. The animals were intubated and ventilated with a mixture of oxygen and nitrous oxide (2:3), using a ventilator. The expired CO2 level was measured using a capnograph. The tidal volume was adjusted to obtain a CO2 level of approximately 4.5%. Oxygen saturation was measured via a probe on the earlobe using a pulse oxymeter. Blood pressure was measured non-invasively with a cuff placed on the tail. The ECG was recorded and heart rate was measured. Rectal temperature was measured and body temperature was kept at 37-38° C. using a heating blanket. The right hand and right arm of the animal were fixed to a frame using surgical tape. The thumb was connected to a force transducer. A pre-load of 200-500 mN was applied. Two needle electrode were placed near the N. ulnaris and the nerve was stimulated with train-of-four pulses (pulse duration: 2 ms, train-frequency: 0.07 Hz). At the end of the experiment, the animals were allowed to recover from anesthesia. Appropriate recovery care was given to all animals. Two groups of monkeys were used to assess the reversal effects of Org 25969 against the neuromuscular blocking agents rocuronium (Esmeron®/Zemuron®) and vecuronium (Norcuron®). In the first group, animals initially received an intravenous bolus injection of a 1×ED90 dose of rocuronium bromide to induce neuromuscular block, followed by spontaneous recovery of the twitches. After complete recovery of the twitches, each group received a second and larger 5×ED90 dose of rocuronium followed by spontaneous recovery in one subgroup, whereas the other subgroup received an intravenous bolus dose of 1150 nmol·kg^−1 Org 25969 as soon as all twitches had disappeared. In the vecuronium groups of animals, the same protocol was used, but rocuronium was replaced by vecuronium. Rocuronium bromide and vecuronium bromide were dissolved in a citric acid/phosphate/mannitol buffer (pH 4.0). Org 25969 was dissolved in saline.

[2] = tested on: M. gastrocnemius contractions; format: in vivo, guinea pig; conditions: for 1× ED90 dose: rocuronium i.v. bolus, established in each animal
Method: Male healthy mature guinea pigs were anesthetised with 30 mg·kg^−1 pentobarbitone and 900 mg·kg^−1 urethane i.p. The guinea pigs were artificially ventilated with room air (4.5-5.5 ml; 50-60 strokes/min). Catheters were placed in both jugular veins and a third catheter was placed in the carotid artery for continuous monitoring of arterial blood pressure and the taking of blood samples for blood gas analysis.
Heart rate was derived from the blood pressure signal.
Body temperature was maintained at 37-38° C. using an electrical heating pad.
The gastrocnemius muscle was dissected free from surrounding muscles and set up for recording twitch tension using a force transducer. A resting tension of 250-300 mN was applied to the muscle. A stimulation electrode was placed around the sciatic nerve, which was crushed centrally to the electrode to prevent reflex responses. The gastrocnemius muscle was stimulated indirectly via the sciatic nerve with rectangular pulses of 0.5 ms duration at 10 s (0.1 Hz) intervals at a supra maximal voltage using a Grass S88 Stimulator.
Animals were allowed to stabilise for […] before the start of the experiment. Firstly, the 1×ED90 blocking dose of rocuronium was established in each animal followed by complete spontaneous recovery of muscle contractions. After at least 30 minutes, all animals received a 10×ED90 blocking dose of rocuronium by intravenous bolus injection. One minute after bolus injection of rocuronium, the animals received either 2300 nmol·kg^−1 Org 25969 in saline or an equivalent volume of saline. Time to 25%, 50%, 75% and 90% recovery of twitch height was measured from the moment of injection of Org 25969 or saline, respectively.
Rocuronium bromide was dissolved in a pH 4.0 citric acid/phosphate/mannitol buffer. Org 25969 was dissolved in saline.

[3] = tested on: deep block induced by rocuronium; format: in vivo, human
Source text: A simple method of monitoring neuromuscular function is the train-of-four (TOF) technique using an acceleromyograph (TOF Watch®). Four electrical stimuli each 0.5 seconds apart (and for instance applied at 12-15 seconds intervals) are applied along the course of the ulnar nerve in the arm. Stimulation of the ulnar nerve causes contraction of the adductor pollicis muscle and movement of the thumb. Response can be noted visually or, more accurately, by placing a finger lightly on the surface of the hand over the muscle to feel the contraction. A baseline response check is done to ensure that there are four muscle twitches in response to the four stimuli. Normal baseline and full recovery is indicated by four twitches of equal strenght. As the number of acetylcholine receptors occupied by NMBAs increases, the number of twitches decreases, no twitches indicating total paralysis.
as §1
10 Volunteers, which were enrolled in a phase 1 trial with the objective to investigate the safety, pharmacokinetics and efficacy of Org 25969, received general anesthesia using i.v. administration of remifentanil followed by propofol (Target controlled Infusion—Diprifusor®) for induction and maintenance. After induction of anesthesia and set-up of the TOF-Watch®SX subjects received a i.v. bolus dose of 0.6 mg·kg^−1 rocuronium bromide (Esmeron®) given by hand over 5 seconds. Between the administration of rocuronium and the administration of Org 25969, a laryngeal mask was applied or tracheal intubation was performed to ventilate the subjects. At 3 minutes after rocuronium bromide administration (i.e. deep block) either placebo (commercially physiological salt solution, 0.9% sodium chloride) or Org 25969 (25 mg/ml) were given as a bolus dose into a fast running infusion in the forearm. Six dose levels of Org 25969 were given to these 10 volunteers. Neuromuscular block was measured using the TOF-Watch-SX® acceleromyograph for at least 90 minutes after administration of Org 25969 or placebo.

[4] = Org 25969 with vecuronium; cited from earlier work
[5] = Org 25969 with rapacuronium; compared with rocuronium (about 15.10^6 M^−1); cited from earlier work
[6] = 5× ED90 rocuronium + 1150 nmol · kg^−1 Org 25969 i.v.
[7] = 5× ED90 rocuronium in the subgroup given 1150 nmol · kg^−1 Org 25969 once all twitches had disappeared
[8] = 10× ED90 rocuronium, 2300 nmol · kg^−1 Org 25969 i.v. one minute later (group 2), time from injection of Org 25969
[9] = 1× ED90 rocuronium, spontaneous recovery
[10] = 5× ED90 rocuronium, spontaneous recovery
[11] = 5× ED90 rocuronium, spontaneous recovery subgroup
[12] = 1× ED90 rocuronium i.v., spontaneous recovery, group 1
[13] = 1× ED90 rocuronium i.v., spontaneous recovery, group 2
[14] = 10× ED90 rocuronium i.v. bolus, group 1
[15] = 10× ED90 rocuronium i.v. bolus, group 2
[16] = 10× ED90 rocuronium, saline one minute later (group 1), time from injection of saline

In the case of `O=C(O)CCSC[C@H]1O[C@@H]2O[C@H]3[C@H](O)[C@@H](O)[C@@H](O[C@H]4[C@H](O)[C@@H](O)[C@@H](O[C@H]5[C@H](O)[C@@H](O)[C@@H](O[C@H]6[C@H](O)[C@@H](O)[C@@H](O[C@H]7[C@H](O)[C@@H](O)[C@@H](O[C@H]8[C@H](O)[C@@H](O)[C@@H](O[C@H]9[C@H](O)[C@@H](O)[C@@H](O[C@H]1[C@H](O)[C@H]2O)O[C@@H]9CSCCC(=O)O)O[C@@H]8CSCCC(=O)O)O[C@@H]7CSCCC(=O)O)O[C@@H]6CSCCC(=O)O)O[C@@H]5CSCCC(=O)O)O[C@@H]4CSCCC(=O)O)O[C@@H]3CSCCC(=O)O` [Org 25969, 6-per-deoxy-6-per-(2-carboxyethyl)thio-γ-cyclodextrin], the “effectiveness against rocuronium compared with vecuronium (in words)” value ([1]; 1150 nmol·kg^−1 Org 25969, 5×ED90 of either blocker) is reported as “more effective against a 5×ED90 dose of rocuronium”, the “reversal of rocuronium-induced neuromuscular block (in words)” value ([1]; 1150 nmol·kg^−1 Org 25969 i.v. after 5×ED90 rocuronium) is reported as “rapid reversal” and the “0.50-0.90 TOF ratio interval” value [1, 6] is reported as 4.0 ± 0.9 min. For the same compound, the 25-75% recovery index [1, 6] was 3.1 ± 0.8 min, the “time to 25% recovery of T1” value [1, 6] was 3.8 ± 0.7 min and the “time to 90% recovery of T1” value [1, 6] was 9.5 ± 1.9 min. The “time to TOF ratio 0.90” value [1, 6] was 7.9 ± 1.8 min, the block [1, 7] was 100.0 ± 0.0% and the onset time [1, 7] was 0.5 ± 0.1 min. For the same compound, the 25-75% recovery index ([2]; 10× ED90 rocuronium, 2300 nmol · kg^−1 Org 25969 i.v. one minute later (group 2)) was 1.3 min and 1.3 ± 0.4 min, the “time to 25% recovery” value [2, 8] was 3.7 ± 0.4 min and the “time to 90% recovery” value [2, 8] was 8.5 min and 8.5 ± 2.2 min. For the same compound, the “Time to TOF ratio 0.9” value ([3]; Org 25969 0.1 mg · kg^−1 i.v. bolus 3 minutes after 0.6 mg·kg^−1 rocuronium bromide, individual volunteer) was 43 min, the “Time to TOF ratio 0.9” value ([3]; Org 25969 0.5 mg · kg^−1 i.v. bolus 3 minutes after 0.6 mg·kg^−1 rocuronium bromide, individual volunteer) was 71 min and the “Time to TOF ratio 0.9” value ([3]; Org 25969 1.0 mg · kg^−1 i.v. bolus 3 minutes after 0.6 mg·kg^−1 rocuronium bromide, individual volunteers) was 23 min and 31 min. For the same compound, the “Time to TOF ratio 0.9” value ([3]; Org 25969 2.0 mg · kg^−1 i.v. bolus 3 minutes after 0.6 mg·kg^−1 rocuronium bromide, individual volunteers) was 13 min and 17 min, the “Time to TOF ratio 0.9” value ([3]; Org 25969 4.0 mg · kg^−1 i.v. bolus 3 minutes after 0.6 mg·kg^−1 rocuronium bromide, individual volunteers) was 2.5 min and 3.2 min and the “Time to TOF ratio 0.9” value ([3]; Org 25969 8.0 mg · kg^−1 i.v. bolus 3 minutes after 0.6 mg·kg^−1 rocuronium bromide, individual volunteers) was ≤ 2 min and 1.0 min and 1.2 min. The re-curarisation ([3]; human, in vivo) was “no signs of re-curarisation”, the “affinity (association constant)” value [4] was “about 9.10^6 M^−1” and the “affinity (association constant)” value [5] was “about the same”.
For `C=CC[N+]1([C@H]2C[C@H]3[C@@H]4CC[C@H]5C[C@H](O)[C@@H](N6CCOCC6)C[C@]5(C)[C@H]4CC[C@]3(C)[C@H]2OC(C)=O)CCCC1` [rocuronium, rocuronium bromide], the onset time ([1]; 1× ED90 rocuronium) was 1.2 ± 0.0 min, the “0.50-0.90 TOF ratio interval” value [1, 9] was 2.6 ± 0.2 min and the 25-75% recovery index [1, 9] was 3.3 ± 0.4 min. The “time to 25% recovery of T1” value [1, 9] was 4.5 ± 0.6 min, the “time to 90% recovery of T1” value [1, 9] was 9.6 ± 0.9 min and the “time to TOF ratio 0.90” value [1, 9] was 8.4 ± 0.9 min. The block ([1]; 1× ED90 rocuronium, Mean ± SEM, n = 4) was 93.3 ± 1.9%, the “0.50-0.90 TOF ratio interval” value [1, 10] was 6.9 ± 0.8 min and the 25-75% recovery index [1, 10] was 6.0 ± 0.6 min. The “time to 25% recovery of T1” value [1, 10] was 18.5 ± 2.1 min, the “time to 90% recovery of T1” value [1, 10] was 27.7 ± 3.2 min and the “time to TOF ratio 0.90” value [1, 10] was 28.2 ± 3.4 min. It also gave a block [1, 11] of 100.0 ± 0.0%, an onset time [1, 11] of 0.7 ± 0.2 min and a 25-75% recovery index [2, 12] of 3.5 ± 0.4 min. The max recovery [2, 12] was 101.1 ± 1.3%, the “max recovery after (time)” value [2, 12] was 15.1 ± 2.1 min and the “time to 25% recovery” value [2, 12] was 5.1 ± 0.7 min. For the same compound, the “time to 90% recovery” value [2, 12] was 10.7 ± 1.5 min, the 25-75% recovery index [2, 13] was 2.3 ± .5 min and the max recovery [2, 13] was 101.4 ± 2.8%. The “max recovery after (time)” value [2, 13] was 12.5 ± 1.7 min, the “time to 25% recovery” value [2, 13] was 3.8 ± 0.5 min and the “time to 90% recovery” value [2, 13] was 8.7 ± 1.4 min. It also gave an onset time ([2]; 1× ED90 rocuronium i.v., group 1) of 2.6 ± 0.3 min, a max block ([2]; 1× ED90 rocuronium i.v., group 1, Mean ± SEM, n = 6) of 89.7 ± 2.4% and an onset time ([2]; 1× ED90 rocuronium i.v., group 2) of 2.1 ± 0.3 min. For the same compound, the max block ([2]; 1× ED90 rocuronium i.v., group 2, Mean ± SEM, n = 6) was 91.0 ± 2.5%, the max block [2, 14] was 100.0 ± 0.0% and the onset time [2, 14] was 2.0 ± 0.8 min. For the same compound, the max block [2, 15] was 100.0 ± 0.0%, the onset time [2, 15] was 1.7 ± 0.5 min and the 25-75% recovery index ([2]; 10× ED90 rocuronium, saline one minute later (group 1)) was 15.9 min and 15.9 ± 4.0 min. For the same compound, the “time to 25% recovery” value [2, 16] was 47.5 ± 7.0 min, the “time to 90% recovery” value [2, 16] was 78.3 min and 78.3 ± 15.2 min and the “1× ED90 dose” value ([2]; group 1, Mean ± SEM, n = 6) was 178 ± 22 nmol/kg. The “1× ED90 dose” value ([2]; group 2, Mean ± SEM, n = 6) was 169 ± 15 nmol/kg and the “Time to TOF ratio 0.9” value ([3]; 0.6 mg·kg^−1 rocuronium bromide i.v., placebo at 3 minutes, time from placebo, n = 10) was 35 to 69 min.
